# Source: patent US11414377B2, “Modulator of metabotropic and ionotropic transmembrane receptors and use thereof” (IBD THERAPEUTICS LLC, priority 2018, dated 2022)
# What was measured:
# TRPV1 ion channel = target: T1, TRPV1 ion channel (Homo sapiens, UniProt Q8NER1); assay: Effect on activity of TRPV1 ion channel (Fluo-4 AM calcium); format: cell-based; settings: TRPV1 expressing CHO cells; Capsaicin 30 nM; intracellular calcium; read-out: IC50, blocker of TRPV1 ion channel
# T1 construct: expressed in transfected cells; host or cells: CHO cells
# Procedure: Compound I was dissolved in DMSO to a concentration of 100 mM; then the stock solution was serially diluted with DMSO to prepare a test solution with the concentration of substance equal to 50 μM. TRPV1 expressing CHO cells were used in the experiment. At the day of the experiment, the cells were incubated with a 4 μM of a solution of fluorescent indicator Fluo-4 AM. The cells after the preincubation with Capsaicin (30 nM), the known agonist of […] ion channel, were incubated with the test compound. The activity of receptors was determined by the intracellular calcium concentration using fluorescence spectroscopy (Behrendt, H. J. et al. (2004), Br. J. Pharmacol., 141: 737-745. FINAL).
# balb/c male mice = assay: Acute pain response model, administration of mustard oil in mice; format: in vivo
# Procedure: The study of the activity of the compound on the acute pain response model was conducted using a standard procedure (Laird M. A., Martinez-Caro L., Garcia-Nicas E., Cervero F. A new model of visceral pain and referred hyperalgesia in the mouse//J. Pain 92 (2001). P. 335-342).
# The study was carried out on balb/c male mice, the individual weight of which deviates from the mean value within the sex of no more than ±10%. First, the mice were lightly anesthetized (after 24 hours of fasting). Then 1% solution of mustard oil in physiological solution was introduced to the animals at 4 cm in depth with the help of catheter 3.5 F. The solvent was introduced to the healthy control. 5 minutes after the introduction of the mustard oil, the presence of pain in the animal (a number of abdominal lickings, abdominal wall abductions, lower abdominal deformity to the floor, abdominal distension) was evaluated during the first 20 minutes. Compound I was administered once intragastrically 1 hour before the administration of mustard oil. The obtained data were checked using the Grubb's test for the presence of the largest or smallest abnormal observation (ejection) in the sample. Values determined “to be eliminated” in this test were not used for further assay. For all data, descriptive statistics was used: a mean value (M) and standard error of the mean value (m) were counted up. The normality of distribution of the values obtained in the course of the experiment was checked with the aid of the Kolmogorov-Smirnov test. In the case of normal distribution, Student's t-test (t-test) was used to evaluate the inter-group distinctions. In the case of the distribution that is other than the normal one the Kruskall-Wallis test (with Dann's post hoc test) was used for the comparison of several groups. Distinctions were determined at 5% at a level of confidence.
# human NK2R = target: T2, human NK2R (Homo sapiens, UniProt P21452); assay: Effect on activity of tachykinin receptor type 2 (intracellular calcium, fluorescence); format: cell-based; settings: CHO cells expressing human NK2R, agonist [Nleu10]-NKA-(4-10) 10 nM, read-out: IC50, antagonist of tachykinin receptor type 2
# T2 construct: expressed in transfected cells; host or cells: CHO cells
# T2 sequence (P21452 1-398): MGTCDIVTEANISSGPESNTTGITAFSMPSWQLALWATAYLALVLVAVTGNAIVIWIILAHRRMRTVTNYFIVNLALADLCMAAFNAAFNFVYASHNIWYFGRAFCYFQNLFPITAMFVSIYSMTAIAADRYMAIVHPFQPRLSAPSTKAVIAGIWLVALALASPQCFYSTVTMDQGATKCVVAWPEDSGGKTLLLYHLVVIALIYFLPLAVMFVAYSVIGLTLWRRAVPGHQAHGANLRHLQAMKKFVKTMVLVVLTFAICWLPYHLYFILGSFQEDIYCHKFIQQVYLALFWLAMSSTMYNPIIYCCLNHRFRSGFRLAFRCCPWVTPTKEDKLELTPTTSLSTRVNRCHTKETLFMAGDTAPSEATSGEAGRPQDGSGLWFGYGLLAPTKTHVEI
# Procedure: Compound I was dissolved in DMSO to a concentration of 100 mM; then the stock solution was serially diluted with DMSO. The maximal start concentration of substance is […]. The effect was determined at 8 concentrations of test compound, each concentration was investigated twice. CHO cells expressing human NK2R were used in the experiment, said cells after the preincubation with an agonist [Nleu10]-NKA-(4-10) (10 nM) were incubated with the test compound. The activity of receptors was determined by the intracellular calcium concentration using fluorescence spectroscopy (Biochem Biophys Res Commun. 1994 May 16; 200(3):1512-20).
# T1 sequence (Q8NER1 whole entry): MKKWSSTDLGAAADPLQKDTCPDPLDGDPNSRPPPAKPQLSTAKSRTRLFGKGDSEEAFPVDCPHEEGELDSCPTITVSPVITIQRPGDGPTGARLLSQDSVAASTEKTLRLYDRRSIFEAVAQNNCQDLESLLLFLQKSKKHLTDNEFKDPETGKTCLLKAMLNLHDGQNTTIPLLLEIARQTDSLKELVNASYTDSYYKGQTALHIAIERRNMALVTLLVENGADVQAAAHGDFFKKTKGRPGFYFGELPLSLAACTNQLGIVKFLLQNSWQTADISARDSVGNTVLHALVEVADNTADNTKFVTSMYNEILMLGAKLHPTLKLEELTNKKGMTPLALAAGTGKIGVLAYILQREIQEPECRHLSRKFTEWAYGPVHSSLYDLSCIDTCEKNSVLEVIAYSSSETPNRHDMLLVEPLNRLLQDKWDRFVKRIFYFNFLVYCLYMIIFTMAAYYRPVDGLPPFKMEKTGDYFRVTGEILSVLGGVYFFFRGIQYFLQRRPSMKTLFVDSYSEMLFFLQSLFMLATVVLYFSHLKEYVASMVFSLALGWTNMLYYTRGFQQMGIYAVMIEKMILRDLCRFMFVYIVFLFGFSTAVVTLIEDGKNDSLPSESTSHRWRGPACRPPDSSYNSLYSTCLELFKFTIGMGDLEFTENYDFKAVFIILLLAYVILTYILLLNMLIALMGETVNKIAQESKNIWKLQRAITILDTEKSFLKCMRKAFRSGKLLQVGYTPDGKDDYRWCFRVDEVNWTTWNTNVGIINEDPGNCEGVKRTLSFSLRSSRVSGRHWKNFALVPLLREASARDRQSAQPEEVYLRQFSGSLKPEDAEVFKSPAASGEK
structure (smiles),measurement,setting,value
"O=C(Cc1ccc(O)cc1)N[C@@H](Cc1ccccc1)C(=O)NCCc1ccccc1 [Compound I, 2-phenylethylamide N-(p-hydroxyphenylacetyl)phenylalanine]",IC50,TRPV1 ion channel,51 µM
same,"Number of pain sensations, 0-20 min","balb/c male mice; 15 mg/kg once intragastrically 1 hour prior to mustard oil, control 10.4 ± 1.59, intact 2.2 ± 0.33",2.56 ± 0.78 &
same,"Number of pain sensations, 0-20 min","balb/c male mice; 1.5 once intragastrically 1 hour prior to mustard oil, control 10.4 ± 1.59",14.8 ± 3.01
same,"Number of pain sensations, 0-20 min","balb/c male mice; 3 once intragastrically 1 hour prior to mustard oil, control 10.4 ± 1.59",8.56 ± 0.94
same,"Number of pain sensations, 0-20 min","balb/c male mice; 7.5 once intragastrically 1 hour prior to mustard oil, control 10.4 ± 1.59",15.1 ± 1.7
same,IC50,human NK2R,6.4 µM
